Key:
[1] = biological target: His-CREBBP (1081-1197) bromodomain (Homo sapiens (Human), UniProt Q92793); experiment: AlphaScreen in-vitro binding assay for CREBBP; conditions: biochemical
How it was run: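 Ni-chelate acceptor and streptavidin donor beads (45 µg/mL each, in 50 mM HEPES pH 7.5, 150 mM NaCl, 0.02% BSA) were then added for 60 min at room temperature. IC50 came from 8-point non-linear regression.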

His-Brd2(60-472) = His-Brd2(60-472) (Homo sapiens (Human), UniProt P25440); experiment: TR-FRET in-vitro binding assay for BRD2; conditions: biochemical
How it was run: (§1)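 Bromodomain protein (45 nM in its addition solution) and tetra-acetylated histone H4 peptide (AcK5/8/12/16; 60 nM in its addition solution) were incubated with compounds for 35 min at 30 °C in 50 mM HEPES pH 7.5, 50 mM NaCl, 0.005% Tween20, 0.1% BSA. Eu-anti-His6 plus streptavidin-allophycocyanin detection followed, with TR-FRET read-out.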

His-Brd4(44-477) = His-Brd4(44-477) (Homo sapiens (Human), UniProt O60885); experiment: TR-FRET in-vitro binding assay for BRD4; conditions: biochemical
How it was run: as §1

K-562 cells = experiment: Cell growth inhibition assay (CellTiter-Glo), K-562; format: cell-based, human; conditions: Homo sapiens, K562, read-out: K-562 TGI
How it was run: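 CellTiter-Glo ATP luminescence after compound exposure at 37° C., 5% CO2; 3-fold serial dilutions from 10 μM, 0.1% DMSO vehicle. Readings background- and day 0-corrected, vehicle = 100%, medium = −100%. IC50 and total growth inhibition (TGI) from four-parameter fits.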

His-Brd3(20-477) = His-Brd3(20-477) (Homo sapiens (Human), UniProt Q15059); experiment: TR-FRET in-vitro binding assay for BRD3; conditions: biochemical
How it was run: as §1

Sequence of His-Brd3(20-477) (Q15059 20-477): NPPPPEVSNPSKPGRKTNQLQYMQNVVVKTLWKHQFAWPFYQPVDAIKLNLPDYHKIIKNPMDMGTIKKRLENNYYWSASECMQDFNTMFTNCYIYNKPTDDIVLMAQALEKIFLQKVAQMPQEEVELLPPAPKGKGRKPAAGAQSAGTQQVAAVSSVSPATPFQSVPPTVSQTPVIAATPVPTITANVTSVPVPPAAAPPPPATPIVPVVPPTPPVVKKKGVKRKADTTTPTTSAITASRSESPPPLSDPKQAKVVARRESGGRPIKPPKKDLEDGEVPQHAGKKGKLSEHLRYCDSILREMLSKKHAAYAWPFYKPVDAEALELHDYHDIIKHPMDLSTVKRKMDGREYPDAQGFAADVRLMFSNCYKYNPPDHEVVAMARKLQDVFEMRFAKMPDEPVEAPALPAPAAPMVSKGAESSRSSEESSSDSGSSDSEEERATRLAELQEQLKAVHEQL
Sequence of His-CREBBP (1081-1197) bromodomain (Q92793 1081-1197): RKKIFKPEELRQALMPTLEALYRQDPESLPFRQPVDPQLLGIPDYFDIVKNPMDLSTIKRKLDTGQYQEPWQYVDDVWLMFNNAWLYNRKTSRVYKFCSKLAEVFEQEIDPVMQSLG
Sequence of His-Brd2(60-472) (P25440 60-472): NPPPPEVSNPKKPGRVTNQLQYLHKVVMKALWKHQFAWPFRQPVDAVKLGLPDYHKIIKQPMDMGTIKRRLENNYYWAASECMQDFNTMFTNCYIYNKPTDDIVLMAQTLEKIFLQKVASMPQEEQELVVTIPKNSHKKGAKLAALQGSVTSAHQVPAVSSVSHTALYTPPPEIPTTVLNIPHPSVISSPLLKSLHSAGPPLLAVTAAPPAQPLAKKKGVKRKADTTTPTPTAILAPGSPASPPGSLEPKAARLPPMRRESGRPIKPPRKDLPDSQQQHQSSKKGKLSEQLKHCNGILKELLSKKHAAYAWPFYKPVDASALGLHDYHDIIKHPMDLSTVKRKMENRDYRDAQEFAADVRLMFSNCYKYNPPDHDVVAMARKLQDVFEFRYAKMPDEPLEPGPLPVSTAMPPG

Row | IC50 [1] [µM] | IC50 (His-Brd2(60-472)) [µM] | IC50 (His-Brd4(44-477)) [µM] | IC50 (His-Brd3(20-477)) [µM] | SMILES | IC (total growth inhibition) (K-562 cells) [µM]
1 | 9.8 | 0.072 | 0.05 | 0.059 | CCc1nn(CCOC)c2c1C(c1ccc(Cl)cc1)N(c1cc(C)c3nnc(C)n3c1)C2=O (centres unmarked) [Example 87, 4-(4-chlorophenyl)-5-(3,8-dimethyl-[1,2,4]triazolo[4,3-a]pyridin-6-yl)-3-ethyl-1-(2-methoxyethyl)-4,5-dihydropyrrolo[3,4-c]pyrazol-6(1H)-one] | > 10
2 | 15 | 0.036 | 0.032 | 0.032 | CCn1nc(C)c2c1C(=O)N(c1cc(C)c3nnc(C)n3c1)C2c1ccc(Cl)cc1 (centres unmarked) [Example 116, 4-(4-chlorophenyl)-5-(3,8-dimethyl-[1,2,4]triazolo[4,3-a]pyridin-6-yl)-1-ethyl-3-methyl-4,5-dihydropyrrolo[3,4-c]pyrazol-6(1H)-one] | > 10
3 | 12 | 0.16 | 0.14 | 0.13 | CC(=O)N1CC(n2nc(C)c3c2C(=O)N(c2cc(C)c(=O)n(C)c2)C3c2ccc(Cl)cc2)C1 (centres unmarked) [Example 153, 1-(1-acetylazetidin-3-yl)-4-(4-chlorophenyl)-5-(1,5-dimethyl-6-oxo-1,6-dihydropyridin-3-yl)-3-methyl-4,5-dihydropyrrolo[3,4-c]pyrazol-6(1H)-one] | > 10
4 | > 37 | 0.12 | 0.091 | 0.12 | CC(=O)N1CC(n2nc(C)c3c2C(=O)N(c2cc(C)c4nnc(C)n4c2)C3c2ccc(Cl)cc2)C1 (centres unmarked) [Example 154, 1-(1-acetylazetidin-3-yl)-4-(4-chlorophenyl)-5-(3,8-dimethyl-[1,2,4]triazolo[4,3-a]pyridin-6-yl)-3-methyl-4,5-dihydropyrrolo[3,4-c]pyrazol-6(1H)-one] | > 10
5 | > 37 | 6 | 7.8 | 7.6 | COc1ncc(-n2nc(C)c3c2C(=O)N(c2cc(C)c(=O)n(C)c2)[C@H]3c2ccc(Cl)cc2)c(OC)n1 [Example 99, (S)-4-(4-chlorophenyl)-1-(2,4-dimethoxypyrimidin-5-yl)-5-(1,5-dimethyl-6-oxo-1,6-dihydropyridin-3-yl)-3-methyl-4,5-dihydropyrrolo[3,4-c]pyrazol-6(1H)-one] | > 10
6 | > 37 | 5.3 | 4 | 5.4 | Cc1nn(-c2ccnn2C)c2c1[C@H](c1ccc(Cl)cc1)N(c1cc(C)c(=O)n(C)c1)C2=O [Example 121, (S)-4-(4-chlorophenyl)-5-(1,5-dimethyl-6-oxo-1,6-dihydropyridin-3-yl)-3-methyl-1-(1-methyl-1H-pyrazol-5-yl)-4,5-dihydropyrrolo[3,4-c]pyrazol-6(1H)-one] | > 10
7 | 1.4 | 0.017 | 0.02 | 0.021 | Cc1nn(C2CC2)c2c1[C@@H](c1ccc(Cl)cc1)N(c1cc(Cl)c(=O)n(C)c1)C2=O [Example 51, (R)-5-(5-chloro-1-methyl-6-oxo-1,6-dihydropyridin-3-yl)-4-(4-chlorophenyl)-1-cyclopropyl-3-methyl-4,5-dihydropyrrolo[3,4-c]pyrazol-6(1H)-one] | > 10
8 | 3.7 | 0.03 | 0.036 | 0.037 | COc1ncccc1-n1nc(C)c2c1C(=O)N(c1cc(C)c(=O)n(C)c1)[C@@H]2c1ccc(Cl)cc1 [Example 128, (R)-4-(4-chlorophenyl)-5-(1,5-dimethyl-6-oxo-1,6-dihydropyridin-3-yl)-1-(2-methoxypyridin-3-yl)-3-methyl-4,5-dihydropyrrolo[3,4-c]pyrazol-6(1H)-one] | > 10

Row | SMILES | IC50 [1] [µM] | IC50 (His-Brd2(60-472)) [µM] | IC50 (His-Brd4(44-477)) [µM] | IC50 (His-Brd3(20-477)) [µM] | IC (total growth inhibition) (K-562 cells) [µM]
9 | Cc1nn(-c2ccnn2C)c2c1C(c1ccc(Cl)cc1)N(c1cc(C)c3nnc(C)n3c1)C2=O (centres unmarked) [Example 90, 4-(4-chlorophenyl)-5-(3,8-dimethyl-[1,2,4]triazolo[4,3-a]pyridin-6-yl)-3-methyl-1-(1-methyl-1H-pyrazol-5-yl)-4,5-dihydropyrrolo[3,4-c]pyrazol-6(1H)-one] | > 37 | 0.028 | 0.015 | 0.028 | > 10
10 | Cc1nn(C(=O)N(C)C)c2c1C(c1ccc(Cl)cc1)N(c1cc(C)c(=O)n(C)c1)C2=O (centres unmarked) [Example 142, 4-(4-chlorophenyl)-5-(1,5-dimethyl-6-oxo-1,6-dihydropyridin-3-yl)-N,N,3-trimethyl-6-oxo-5,6-dihydropyrrolo[3,4-c]pyrazole-1(4H)-carboxamide] | 4.6 | 0.18 | 0.19 | 0.15 | > 10
